Measured values published in ChEMBL document CHEMBL6182842, “Progress in the development of macrophage migration inhibitory factor small-molecule inhibitors” (Eur J Med Chem, 2025).
pIC50, pKi: −log10 of the molar value.

Columns and labels:
[1] = target: T1, Macrophage migration inhibitory factor (Homo sapiens, UniProt P14174); assay: Inhibition of human recombinant MIF incubated for 30 mins by microplate reader assay
T1 sequence (P14174 whole entry): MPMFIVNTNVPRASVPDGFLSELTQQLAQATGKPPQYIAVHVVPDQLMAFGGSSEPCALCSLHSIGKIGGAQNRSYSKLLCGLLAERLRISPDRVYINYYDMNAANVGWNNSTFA

[2] = target: T1, Macrophage migration inhibitory factor; assay: Inhibition of human full length MIF extracted from Escherichia coli BL21 (DE3) by UV absorbance based analysis
[3] = target: T2, D-dopachrome decarboxylase (Homo sapiens, UniProt P30046); assay: Inhibition of wild type human DDT tautomerase activity at 100 uM relative to control
T2 sequence (P30046 whole entry): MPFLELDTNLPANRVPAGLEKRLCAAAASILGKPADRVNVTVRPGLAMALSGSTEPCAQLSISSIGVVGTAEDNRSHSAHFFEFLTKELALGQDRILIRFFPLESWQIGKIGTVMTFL

[4] = target: T1, Macrophage migration inhibitory factor; assay: Inhibition of human recombinant MIF tautomerase activity
[5] = target: T3, Macrophage migration inhibitory factor (Homo sapiens) (UniProt P14174); assay: Potency index, ratio of ISO-1 IC50 to test compound IC50 for inhibition of human recombinant MIF
T3 sequence (whole entry): T1 sequence (P14174 whole entry)

[6] = target: T1, Macrophage migration inhibitory factor; assay: Inhibition of human recombinant MIF extracted from Escherichia coli BL21 (DE3)
[7] = target: T1, Macrophage migration inhibitory factor; assay: Binding affinity to human recombinant MIF extracted from Escherichia coli BL21 (DE3) assessed as inhibition constant
[8] = target: T2, D-dopachrome decarboxylase; assay: Binding affinity to human DDT extracted from Escherichia coli assessed as inhibition constant
[9] = target: T1, Macrophage migration inhibitory factor; assay: Inhibition of MIF (unknown origin)
[10] = target: T1, Macrophage migration inhibitory factor; assay: Binding affinity to wild type human MIF extracted from Escherichia coli BL 21 (DE3) assessed as inhibition constant
[11] = species on record: Homo sapiens; assay: Selectivity ratio of Ki for wild type human DDT to Ki for wild type human MIF
[12] = target: T2, D-dopachrome decarboxylase; assay: Inhibition of human DDT extracted from Escherichia coli

O=C(CSc1cc(-c2ccccc2)ncn1)c1ccc(O)cc1O
pIC50 [1]: 5.02

Cc1cc(C(c2ccccn2)N2CCOCC2)c(NC(=O)c2ccco2)s1 (centres undefined)
pIC50 [2]: 5.19

CC(=O)NS(=O)(=O)c1ccc(NC(=O)CC(C)(C)C)cc1
pIC50 [1]: 5.91

O=C(O)c1cccnc1
inhibition [3]: > 100%

Cn1cccc1/C=C1\CCc2ccccc2C1=O
pIC50 [4]: 4.62

O=C(O)c1ccccn1
inhibition [3]: > 75%

O=c1c(O)c(-c2ccc(O)cc2O)oc2cc(O)cc(O)c12 [MORIN]
Ratio IC50 [5]: 6.3 | pIC50 [6]: 4.96 | pKi [7]: 5.05

COc1cc(/C=C2\CCc3cc(O)ccc3C2=O)ccc1O
pIC50 [4]: 5.37

Cc1ccc(/C=C2\CCc3ccccc3C2=O)cc1
pIC50 [4]: 4.78

O=C(O)c1cccc(-c2cc(C(=O)O)ncc2C(=O)O)c1
pKi [8]: 4.48

O=C1/C(=C/c2ccco2)CCc2ccccc21
pIC50 [4]: 4.24

O=C1/C(=C/c2ccccc2)CCCc2ccccc21
pIC50 [4]: 4.08

Cc1c(C(=O)c2ccc(Cl)cc2)oc2cc(N)ccc12
pIC50 [1]: 4.85

Nc1ccccc1NC(=O)c1ccc(NC(=O)Cc2ccc(N3Cc4ccc(O)cc4OC3=O)cc2)cc1
pIC50 [9]: 6.09

COc1ccc(C(=O)Nc2nnc(-c3ccco3)o2)c(OC)c1
pIC50 [2]: 5.16

COC(=O)c1ccc(O)c2nc3c(C=O)c(O)cc(O)c3nc12 [LOMOFUNGIN]
pIC50 [9]: 6.33

O=C1/C(=C/c2ccncc2)CCc2ccccc21
pIC50 [4]: 4.68

O=c1c(-c2c(O)cc(O)c3c(=O)cc(-c4ccc(O)cc4)oc23)c(-c2ccc(O)cc2)oc2cc(O)cc(O)c12
pIC50 [6]: 4.88 | pKi [7]: 5.00

O=C(O)c1ccc(C(=O)O)nc1 [PYRIDINE-2,5-DICARBOXYLIC ACID]
pKi [10]: 4.76 | inhibition [3]: < 25% | Ratio Ki [11]: 79

Cc1cc(-c2ccccc2)ncn1
pIC50 [12]: < 3.30

O=C(CC1(O)C(=O)N(Cc2ccccc2Cl)c2ccccc21)C1Cc2ccccc2OC1=O (centres undefined)
pIC50 [1]: 5.12

c1ccc(-c2ccncc2)cc1
inhibition [3]: > 100%

O=c1c(O)c(-c2ccc(O)cc2)oc2cc(O)cc(O)c12 [KAEMPFEROL]
Ratio IC50 [5]: 17.2 | pIC50 [6]: 3.72

O=C(O)c1ccc(C(=O)O)cc1
inhibition [3]: > 75%

COc1ccccc1/C=C1\COc2ccccc2C1=O
pIC50 [4]: 5.37

O=c1oc2ccc(F)cc2cc1-c1nc(-c2cccs2)no1
pIC50 [1]: 5.12

O=C1/C(=C/c2ccc3cc[nH]c3c2)CCc2ccccc21
pIC50 [4]: 4.23

CCC(CC)c1nnc(NC(=O)Oc2ccccc2)s1
pIC50 [1]: 4.92

O=C1/C(=C/c2ccccc2)CCc2ccccc21
pIC50 [4]: 3.90

C[C@@H]1O[C@@H](O[C@H]2[C@H](Oc3cc(O)c4c(c3)O[C@@H](c3ccc(O)cc3)CC4=O)O[C@H](CO)[C@@H](O)[C@@H]2O)[C@H](O)[C@H](O)[C@H]1O
Ratio IC50 [5]: 13.3 | pIC50 [6]: 4.29 | pKi [7]: 4.36

O=C1/C(=C/c2cccnc2)CCc2ccccc21
pIC50 [4]: 4.69
